{
  "source": "patent US20200306295A1",
  "about": "“METHOD AND DEVICE FOR ANNIHILATION OF Staphylococcus aureus” (priority 2017, published 2020)",
  "system": "200 kinds of cytokines",
  "test": "Fold change of 200 cytokines in homogenized wound tissue",
  "type": "in vivo, Balb/c mice",
  "settings": "mean; wound tissue",
  "from_the_text": "To quantify the physiological condition of the wound tissues, we measured the concentrations of 200 kinds of cytokines (Table. 1) from the supernatant of homogenized tissue solution. Cytokines are small secreted proteins released by cells and have specific effect on the interactions and communications between cells (25).\nTo initiate the formation of a skin wound, five groups (n=5) of eight-week old female Balb/c mice (obtained from Harlan Laboratories, Indianapolis, Ind., USA) were disinfected with ethanol (70%) and shaved on the middle of the back (approximately a one-inch by one-inch square region around the injection site) one day prior to infection as described from a reported procedure (3). To prepare the bacterial inoculum, an aliquot of overnight culture of MRSA USA300 was transferred to fresh Tryptic soy broth and shaken at 37° C. until an OD600 value of ˜1.0 was achieved. The cells were centrifuged, washed once with PBS, re-centrifuged, and then re-suspended in PBS. Mice subsequently received an intradermal injection (40 μL) containing 2.40×10^9 CFU/mL MRSA USA300.\nOne group of mice was left untreated (negative control). Each group of mice receiving a particular treatment regimen was housed separately in a ventilated cage with appropriate bedding, food, and water. […] Mice were treated twice daily (once every 12 hours) for three days, before they were humanely euthanized via CO2 asphyxiation 12 hours after the last dose was administered. The region around the skin wound was lightly swabbed with ethanol (70%) and excised. The tissue was subsequently homogenized in PBS. The homogenized tissue was then serially diluted in PBS before plating onto mannitol salt agar plates. Plates were incubated for at least 19 hours at 37° C. before viable MRSA CFU/mL were counted for each group. Outlier was removed based upon the Dixon Q Test.",
  "data": [
    {"smiles": "OO", "note": "[H2O2, hydrogen peroxide]", "values": [
      {"measurement": "fold change of IL-1ra", "result": 0.1670},
      {"measurement": "fold change of IL-2", "result": "−0.1860"},
      {"measurement": "fold change of IL-2 Ra", "result": 0.2015},
      {"measurement": "fold change of IL-3", "result": "−0.1781"},
      {"measurement": "fold change of IL-3 Rb", "result": "−0.0953"},
      {"measurement": "fold change of IL-4", "result": "−0.2011"},
      {"measurement": "fold change of IL-5", "result": "−0.3106"},
      {"measurement": "fold change of IL-6", "result": "−0.2775"},
      {"measurement": "fold change of IL-7", "result": "−0.0083"},
      {"measurement": "fold change of IL-7 Ra", "result": "−0.4620"},
      {"measurement": "fold change of IL-9", "result": 0.0482},
      {"measurement": "fold change of IL-10", "result": "−0.1759"},
      {"measurement": "fold change of IL-12p40", "result": 0.0200},
      {"measurement": "fold change of IL-12p70", "result": "−0.1362"},
      {"measurement": "fold change of IL-13", "result": "−0.4855"},
      {"measurement": "fold change of IL-15", "result": "−0.1351"},
      {"measurement": "fold change of IL-17", "result": 1.4006},
      {"measurement": "fold change of IL-17B", "result": "−0.2485"},
      {"measurement": "fold change of IL-17B R", "result": 0.0438},
      {"measurement": "fold change of IL-17E", "result": "−0.3214"},
      {"measurement": "fold change of IL-17F", "result": 0.6993},
      {"measurement": "fold change of IL-20", "result": "−0.1274"},
      {"measurement": "fold change of IL-21", "result": "−0.5851"},
      {"measurement": "fold change of IL-22", "result": "−0.5330"},
      {"measurement": "fold change of IL-23", "result": 0.1392},
      {"measurement": "fold change of IL-28", "result": 0.2046},
      {"measurement": "fold change of IL-33", "result": "−0.6370"},
      {"measurement": "fold change of JAM-A", "result": "−0.2998"},
      {"measurement": "fold change of KC", "result": "−0.0602"},
      {"measurement": "fold change of Kremen-1", "result": "−0.4532"},
      {"measurement": "fold change of L-Selectin", "result": "−0.1755"},
      {"measurement": "fold change of LIX", "result": "−0.2304"},
      {"measurement": "fold change of LOX-1", "result": 0.0229},
      {"measurement": "fold change of Leptin", "result": "−0.1401"},
      {"measurement": "fold change of Leptin R", "result": "−0.1563"},
      {"measurement": "fold change of Limitin", "result": 0.5441},
      {"measurement": "fold change of Lipocalin-2", "result": "−0.0669"},
      {"measurement": "fold change of Lungkine", "result": "−0.0954"},
      {"measurement": "fold change of Lymphotactin", "result": 0.0191},
      {"measurement": "fold change of MCP-1", "result": 0.9431},
      {"measurement": "fold change of MCP-5", "result": "−0.8808"},
      {"measurement": "fold change of MCSF", "result": "−0.0002"},
      {"measurement": "fold change of MDC", "result": 0.5488},
      {"measurement": "fold change of MFG-E8", "result": "−0.1414"},
      {"measurement": "fold change of MIG", "result": "−0.1127"},
      {"measurement": "fold change of MIP-1a", "result": "−0.3107"},
      {"measurement": "fold change of MIP-1b", "result": "−0.4967"},
      {"measurement": "fold change of MIP-1g", "result": "−0.0241"},
      {"measurement": "fold change of MIP-2", "result": "−0.0277"},
      {"measurement": "fold change of MIP-3a", "result": 0.3267},
      {"measurement": "fold change of MIP-3b", "result": "−0.1993"},
      {"measurement": "fold change of MMP-2", "result": "−0.5768"},
      {"measurement": "fold change of MMP-3", "result": "−0.0983"},
      {"measurement": "fold change of MMP-10", "result": "−0.1476"},
      {"measurement": "fold change of MadCAM-1", "result": "−0.3032"},
      {"measurement": "fold change of Marapsin", "result": "−0.0476"},
      {"measurement": "fold change of Neprilysin", "result": "−0.2555"},
      {"measurement": "fold change of OPG", "result": "−0.2142"},
      {"measurement": "fold change of OPN", "result": "−0.2307"},
      {"measurement": "fold change of P-selectin", "result": "−0.4006"},
      {"measurement": "fold change of PDGF-AA", "result": "−0.4666"},
      {"measurement": "fold change of PF4", "result": "−0.7429"},
      {"measurement": "fold change of Pentraxin 3", "result": "−0.7179"},
      {"measurement": "fold change of Persephin", "result": "−0.3386"},
      {"measurement": "fold change of Pro-MMP-9", "result": 0.0213},
      {"measurement": "fold change of Prolactin", "result": 0.2852},
      {"measurement": "fold change of RAGE", "result": "−0.0350"},
      {"measurement": "fold change of RANTES", "result": "−0.4249"},
      {"measurement": "fold change of Resistin", "result": "−0.3623"},
      {"measurement": "fold change of SCF", "result": 0.1915},
      {"measurement": "fold change of SDF-1a", "result": "−0.0807"},
      {"measurement": "fold change of SLAM", "result": "−0.0883"},
      {"measurement": "fold change of Shh-N", "result": "−0.1527"},
      {"measurement": "fold change of TACI", "result": "−0.2636"},
      {"measurement": "fold change of TARC", "result": "−0.4322"},
      {"measurement": "fold change of TCA-3", "result": "−0.2756"},
      {"measurement": "fold change of TCK-1", "result": "−0.4843"},
      {"measurement": "fold change of TECK", "result": 0.1734},
      {"measurement": "fold change of TGFb1", "result": "−0.1570"},
      {"measurement": "fold change of TNF RI", "result": "−0.2939"},
      {"measurement": "fold change of TNF RII", "result": "−0.1233"},
      {"measurement": "fold change of TNFα", "result": 0.1039},
      {"measurement": "fold change of TPO", "result": "−0.0215"},
      {"measurement": "fold change of TRANCE", "result": 0.0878},
      {"measurement": "fold change of TREM-1", "result": 0.0703},
      {"measurement": "fold change of TROY", "result": "−0.0721"},
      {"measurement": "fold change of TSLP", "result": "−0.1726"},
      {"measurement": "fold change of TWEAK", "result": "−0.1667"},
      {"measurement": "fold change of TWEAK R", "result": "−0.4445"},
      {"measurement": "fold change of TremL1", "result": "−0.2695"},
      {"measurement": "fold change of VCAM-1", "result": "−0.1357"},
      {"measurement": "fold change of VEGF", "result": "−0.0295"},
      {"measurement": "fold change of VEGF R1", "result": "−0.4184"},
      {"measurement": "fold change of VEGF R3", "result": "−0.0705"},
      {"measurement": "fold change of VEGF-B", "result": "−0.0693"},
      {"measurement": "fold change of VEGF-D", "result": "−0.0146"},
      {"measurement": "fold change of bFGF", "result": "−0.2542"},
      {"measurement": "fold change of gp130", "result": 0.1048},
      {"measurement": "fold change of sFRP-3", "result": "−0.1892"}
    ]}
  ]
}
